Reference: BindingDB's records for doi:10.7270/Q2XW4H88 (Nmmlsc, 2011)
pEC50: −log10 of the molar value.

Molecular target: T1, Integrin alpha-L (Mus musculus, UniProt P24063)
T1 sequence (P24063 whole entry): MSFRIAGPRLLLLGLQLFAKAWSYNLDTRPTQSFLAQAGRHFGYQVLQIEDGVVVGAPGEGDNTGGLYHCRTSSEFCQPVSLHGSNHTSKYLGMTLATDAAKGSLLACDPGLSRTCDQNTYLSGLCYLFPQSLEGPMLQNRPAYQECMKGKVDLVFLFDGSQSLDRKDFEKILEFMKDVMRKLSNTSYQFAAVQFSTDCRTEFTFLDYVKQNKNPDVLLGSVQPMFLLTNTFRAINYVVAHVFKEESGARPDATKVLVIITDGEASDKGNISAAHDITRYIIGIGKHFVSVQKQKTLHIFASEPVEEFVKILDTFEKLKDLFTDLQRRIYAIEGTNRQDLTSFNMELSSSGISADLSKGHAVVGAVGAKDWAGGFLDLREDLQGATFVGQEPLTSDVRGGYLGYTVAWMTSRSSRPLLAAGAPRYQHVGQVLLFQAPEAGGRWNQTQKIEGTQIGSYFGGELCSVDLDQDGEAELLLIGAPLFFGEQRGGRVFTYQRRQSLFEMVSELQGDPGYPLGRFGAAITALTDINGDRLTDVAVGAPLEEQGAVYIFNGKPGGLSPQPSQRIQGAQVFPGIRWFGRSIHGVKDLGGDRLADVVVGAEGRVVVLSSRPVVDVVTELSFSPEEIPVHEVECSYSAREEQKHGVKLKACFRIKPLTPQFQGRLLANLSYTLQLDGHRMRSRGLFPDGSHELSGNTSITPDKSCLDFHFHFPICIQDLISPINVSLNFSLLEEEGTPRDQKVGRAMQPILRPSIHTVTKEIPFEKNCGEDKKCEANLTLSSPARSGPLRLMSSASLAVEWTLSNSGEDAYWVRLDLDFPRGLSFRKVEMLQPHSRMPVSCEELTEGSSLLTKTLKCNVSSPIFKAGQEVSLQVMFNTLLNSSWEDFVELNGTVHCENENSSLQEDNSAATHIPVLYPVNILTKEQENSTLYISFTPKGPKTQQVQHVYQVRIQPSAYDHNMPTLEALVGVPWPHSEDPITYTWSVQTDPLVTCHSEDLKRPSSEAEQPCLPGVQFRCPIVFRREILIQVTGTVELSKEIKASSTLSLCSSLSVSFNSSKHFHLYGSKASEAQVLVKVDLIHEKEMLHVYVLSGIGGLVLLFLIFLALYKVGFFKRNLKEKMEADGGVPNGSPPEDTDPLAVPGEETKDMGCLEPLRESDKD
Assay: modulators of CD8 T cell-vesicle binding, dose response, powder samples, mouse 2C CD8+ cells (AID 504565)

O=C(c1ccc(-n2c(O)c3c(c2O)CC(Cl)=CC3)cc1)N1CCCCC1 [5-chloro-2-[4-[oxo(1-piperidinyl)methyl]phenyl]-3a,4,7,7a-tetrahydroisoindole-1,3-dione]
pEC50: 5.04
